Source: PubChem BioAssay AID248 (DTP/NCI, 2004)
Values joined by “and” are separate entries in the source; they are usually repeats but may differ in a detail not shown here. Equal entries are not always repeated. Inconclusive results and toxic doses are left out. Cut-off read from the data, not from the text of the source: active = T/C of 150% or more; inactive = T/C below 125%. Square brackets hold non-standard residues; d marks the D form. Peptide text beside a SMILES is read from it. ξ: configuration not given here. ξD = NC(CC(=O)O)C(=O)O

Test system: L1210 leukemia ip in BDF1 mice, survival T/C
Assay: NCI In Vivo Anticancer Drug Screen. Data for tumor model L1210 Leukemia (intraperitoneal) in B6D2F1 (BDF1) mice
Details: endpoint: mean survival time, higher = longer survival
Summary of the method: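 Ratio derived from survival: compound-dosed mice over vehicle-dosed mice, all bearing a transplantable tumor.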

[1] = dose: 25.0 mg/kg/injection, schedule: Q01DX009 (ip), vehicle: Klucel (hydroxypropylcellulose) (HPC)
[2] = dose: 50.0 mg/kg/injection, schedule: Q01DX009 (ip), vehicle: saline
[3] = dose: 100.0 mg/kg/injection, schedule: Q01DX009 (ip), vehicle: Klucel (hydroxypropylcellulose) (HPC)
[4] = dose: 200.0 mg/kg/injection, schedule: Q01DX009 (ip), vehicle: Klucel (hydroxypropylcellulose) (HPC)
[5] = dose: 100.0 mg/kg/injection, schedule: Q04DX002 (ip), vehicle: saline with Tween-80
[6] = dose: 200.0 mg/kg/injection, schedule: Q04DX002 (ip), vehicle: saline with Tween-80
[7] = dose: 100.0 mg/kg/injection, schedule: Q04DX003 (ip), vehicle: saline
[8] = dose: 100.0 mg/kg/injection, schedule: Q01DX001 (ip), vehicle: carboxymethylcellulose (CMC)
[9] = dose: 100.0 mg/kg/injection, schedule: Q04DX003 (ip), vehicle: saline with Tween-80
[10] = dose: 200.0 mg/kg/injection, schedule: Q01DX001 (ip), vehicle: carboxymethylcellulose (CMC)
[11] = dose: 200.0 mg/kg/injection, schedule: Q04DX003 (ip), vehicle: saline with Tween-80
[12] = dose: 100.0 mg/kg/injection, schedule: Q01DX001 (ip), vehicle: saline
[13] = dose: 200.0 mg/kg/injection, schedule: Q01DX001 (ip), vehicle: saline
[14] = dose: 400.0 mg/kg/injection, schedule: Q01DX001 (ip), vehicle: saline
[15] = dose: 50.0 mg/kg/injection, schedule: Q01DX001 (ip), vehicle: saline

Measured: T/C

Nc1cncc2ncc(-c3ccc(Cl)c(Cl)c3)nc12
inactive: dose: 50.0 mg/kg/injection, schedule: Q01DX001 (ip), vehicle: other 98 % of control | dose: 100.0 mg/kg/injection, schedule: Q01DX001 (ip), vehicle: other 98 % of control | dose: 200.0 mg/kg/injection, schedule: Q01DX001 (ip), vehicle: other 98 % of control | dose: 400.0 mg/kg/injection, schedule: Q01DX001 (ip), vehicle: other 100 % of control

O=C1C=CC(=C(c2ccccc2)c2ccccc2)C=C1
inactive: dose: 12.5 mg/kg/injection, schedule: Q01DX009 (ip), vehicle: Klucel (hydroxypropylcellulose) (HPC) 106 % of control | [1] 95 % of control | dose: 50.0 mg/kg/injection, schedule: Q01DX009 (ip), vehicle: Klucel (hydroxypropylcellulose) (HPC) 107 % of control | [2] 87 % of control | dose: 75.0 mg/kg/injection, schedule: Q04DX003 (ip), vehicle: saline 90 % of control | dose: 150.0 mg/kg/injection, schedule: Q04DX003 (ip), vehicle: saline 102 % of control

O=C1CNC(c2ccccc2)c2cc(Cl)ccc2N1 (stereo unspecified)
inactive: [1] 101 % of control | [3] 92 % of control | [4] 87 % of control

O=C(/C=C/c1cccc(Cl)c1)c1ccccc1
inactive: dose: 50.0 mg/kg/injection, schedule: Q04DX002 (ip), vehicle: saline with Tween-80 108 % of control | [5] 115 % of control | [6] 97 % of control

NC1CC1c1ccccc1 (stereo unspecified)
inactive: dose: 12.5 mg/kg/injection, schedule: Q04DX003 (ip), vehicle: saline 98 % of control and 93 % of control | dose: 25.0 mg/kg/injection, schedule: Q01DX009 (ip), vehicle: saline 97 % of control | dose: 25.0 mg/kg/injection, schedule: Q04DX003 (ip), vehicle: saline 96 % of control and 100 % of control and 92 % of control | [2] 105 % of control | dose: 50.0 mg/kg/injection, schedule: Q04DX003 (ip), vehicle: saline 96 % of control and 95 % of control and 100 % of control | dose: 100.0 mg/kg/injection, schedule: Q01DX009 (ip), vehicle: saline 105 % of control | [7] 86 % of control and 103 % of control

CN(C)CCCn1nc(-c2ccccc2)oc1=O
inactive: dose: 75.0 mg/kg/injection, schedule: Q01DX001 (ip), vehicle: saline 96 % of control | dose: 150.0 mg/kg/injection, schedule: Q01DX001 (ip), vehicle: saline 87 % of control

Cc1cccc(Cl)c1OCC(=O)Nc1ccc(Cl)cc1
inactive: [5] 90 % of control | [6] 93 % of control | dose: 400.0 mg/kg/injection, schedule: Q04DX002 (ip), vehicle: saline with Tween-80 93 % of control

c1ccc2[nH]c(-c3ccc(N=Nc4ccc(-c5nc6ccccc6[nH]5)cc4)cc3)nc2c1
inactive: dose: 15.0 mg/kg/injection, schedule: Q01DX Z (ip), vehicle: other 100 % of control | dose: 30.0 mg/kg/injection, schedule: Q01DX Z (ip), vehicle: other 97 % of control | dose: 60.0 mg/kg/injection, schedule: Q01DX Z (ip), vehicle: other 105 % of control | dose: 120.0 mg/kg/injection, schedule: Q01DX Z (ip), vehicle: other 96 % of control | dose: 180.0 mg/kg/injection, schedule: Q01DX Z (ip), vehicle: carboxymethylcellulose (CMC) 108 % of control | dose: 270.0 mg/kg/injection, schedule: Q01DX Z (ip), vehicle: carboxymethylcellulose (CMC) 101 % of control

O=C1C(Cl)=C(Nc2ccc(Br)cc2)C(=O)C(Cl)=C1Nc1ccc(Br)cc1
inactive: dose: 50.0 mg/kg/injection, schedule: Q01DX001 (ip), vehicle: carboxymethylcellulose (CMC) 92 % of control | [8] 92 % of control | [9] 98 % of control | [10] 86 % of control | [11] 95 % of control | dose: 400.0 mg/kg/injection, schedule: Q01DX001 (ip), vehicle: carboxymethylcellulose (CMC) 90 % of control | dose: 400.0 mg/kg/injection, schedule: Q04DX003 (ip), vehicle: saline with Tween-80 103 % of control

O=C(Nc1nccs1)C(F)(F)F
inactive: [12] 109 % of control | [13] 109 % of control | [14] 102 % of control

CC(=O)Nc1ccc(NC(=O)Nc2cccc(C(F)(F)F)c2)cc1
inactive: [3] 94 % of control | [4] 87 % of control

Cc1coc(NS(=O)(=O)c2ccc(N=Nc3c(N)[nH]c(=O)[nH]c3=O)cc2)c1C
inactive: [12] 103 % of control | [13] 96 % of control | [14] 104 % of control

Cc1ccc(S(=O)(=O)F)cc1C(=O)O
inactive: [8] 96 % of control and 106 % of control | dose: 100.0 mg/kg/injection, schedule: Q01DX009 (ip), vehicle: carboxymethylcellulose (CMC) 93 % of control and 102 % of control | dose: 100.0 mg/kg/injection, schedule: Q04DX002 (ip), vehicle: gum acacia 101 % of control and 111 % of control | dose: 100.0 mg/kg/injection, schedule: Q04DX003 (ip), vehicle: carboxymethylcellulose (CMC) 93 % of control and 98 % of control | [10] 95 % of control and 100 % of control | dose: 200.0 mg/kg/injection, schedule: Q01DX009 (ip), vehicle: carboxymethylcellulose (CMC) 99 % of control and 100 % of control | dose: 200.0 mg/kg/injection, schedule: Q04DX002 (ip), vehicle: gum acacia 101 % of control and 104 % of control | dose: 200.0 mg/kg/injection, schedule: Q04DX003 (ip), vehicle: carboxymethylcellulose (CMC) 102 % of control | dose: 400.0 mg/kg/injection, schedule: Q04DX002 (ip), vehicle: gum acacia 107 % of control | dose: 400.0 mg/kg/injection, schedule: Q04DX003 (ip), vehicle: carboxymethylcellulose (CMC) 93 % of control

NC(CC(=O)O)C(=O)NCC(=O)O (stereo unspecified) (H-[ξD]-Gly-OH)
inactive: dose: 12.5 mg/kg/injection, schedule: Q04DX002 (ip), vehicle: Klucel (hydroxypropylcellulose) (HPC) 98 % of control | dose: 25.0 mg/kg/injection, schedule: Q04DX002 (ip), vehicle: Klucel (hydroxypropylcellulose) (HPC) 94 % of control | dose: 50.0 mg/kg/injection, schedule: Q04DX002 (ip), vehicle: Klucel (hydroxypropylcellulose) (HPC) 94 % of control | dose: 100.0 mg/kg/injection, schedule: Q04DX002 (ip), vehicle: Klucel (hydroxypropylcellulose) (HPC) 117 % of control

NC(CSSCC(NC(=O)C(F)(F)F)C(=O)O)C(=O)O (stereo unspecified)
inactive: [15] 96 % of control | [12] 98 % of control | [13] 93 % of control

COc1ccc(CCN=C(C)C2C3CC4CC(C3)CC2C4)cc1OC (stereo unspecified)
inactive: [7] 90 % of control | dose: 200.0 mg/kg/injection, schedule: Q04DX003 (ip), vehicle: saline 97 % of control | dose: 400.0 mg/kg/injection, schedule: Q04DX003 (ip), vehicle: saline 90 % of control

OCC(F)(F)F
inactive: [15] 98 % of control | [12] 110 % of control | [13] 102 % of control | [14] 108 % of control

CC(C)(COC(=O)COc1ccc(Cl)cc1Cl)[N+](=O)[O-]
inactive: [3] 97 % of control | [4] 92 % of control

CCCCCCC(C)(C)NC(N)=O
inactive: [12] 98 % of control | [13] 101 % of control | [14] 93 % of control

NNc1ncccn1
inactive: dose: 5.0 mg/kg/injection, schedule: Q01DX001 (ip), vehicle: saline 102 % of control | dose: 10.0 mg/kg/injection, schedule: Q01DX001 (ip), vehicle: saline 109 % of control | dose: 20.0 mg/kg/injection, schedule: Q01DX001 (ip), vehicle: saline 113 % of control

CN/N=C/c1ccc([N+](=O)[O-])o1
inactive: [9] 97 % of control | [11] 88 % of control

O=C1C=CC(=O)N1c1ccc(Br)c(Cl)c1
inactive: dose: 12.5 mg/kg/injection, schedule: Q04DX002 (ip), vehicle: other 121 % of control | dose: 25.0 mg/kg/injection, schedule: Q04DX002 (ip), vehicle: other 105 % of control | dose: 50.0 mg/kg/injection, schedule: Q04DX002 (ip), vehicle: other 112 % of control

CC(C)(C)c1ccc2c(c1)CCCC2
inactive: dose: 50.0 mg/kg/injection, schedule: Q01DX009 (ip), vehicle: saline with Tween-80 93 % of control | dose: 100.0 mg/kg/injection, schedule: Q01DX009 (ip), vehicle: saline with Tween-80 89 % of control | dose: 200.0 mg/kg/injection, schedule: Q01DX009 (ip), vehicle: saline with Tween-80 96 % of control

OCC1OC(n2c3ccccc3c3ccccc32)C(O)C1O (stereo unspecified)
inactive: dose: 60.0 mg/kg/injection, schedule: Q04DX002 (ip), vehicle: DMSO 97 % of control | dose: 120.0 mg/kg/injection, schedule: Q04DX002 (ip), vehicle: DMSO 102 % of control
